Patent US20250250267A1, “NITROGEN-CONTAINING BRIDGED HETEROCYCLIC COMPOUND, PREPARATION METHOD THEREFOR, AND MEDICAL USE THEREOF” (Jiangsu Hengrui Pharmaceuticals Co., Ltd., priority 2020, published 2025)

Legend:
[1] = system: human complement alternative pathway; assay: Inhibition of human complement alternative pathway (zymosan-activated human serum with EGTA, C5b-9 formation); assay type: biochemical; details: zymosan A, C5b-9 readout
Description: The alternative pathway can be activated by zymosan. The extent of activation of the alternative pathway can be evaluated by assaying the formation of the C5b-9 complex. […] Since the activation of the two pathways requires both magnesium and calcium ions, and the alternative pathway requires magnesium ions only, after chelation with the calcium ion chelator EGTA, the alternative pathway is not inhibited, while the classical pathway and the lectin pathway are. After chelation with EDTA, the three pathways are all inhibited. Therefore, the inhibitory effects of the small-molecule compounds on the alternative pathway can be evaluated by activating the complement alternative pathway in human serum with zymosan in the presence of the EGTA chelator and assaying the formation of the C5b-9 complex.
Zymosan A powder was resuspended at 10 mg/mL in TBS solution and activated by heating at 100° C. for 2 h. After the activation, the suspension was centrifuged at 4000 rpm for 30 min, and the supernatant was discarded. The residue was resuspended in TBS to form a 50 mg/mL suspension. The suspension was aliquoted and stored in a −20° C. freezer. The day before the experiment, the activated zymosan A solution was diluted to 1 mg/mL with the carbonic acid buffer (pH 9.5) and added to a 96-well adsorption black plate at 100 μL/well, and the plate was coated at 4° C. overnight.
A 100 mM Na2CO3 solution and a 100 mM NaHCO3 solution were prepared and mixed in a ratio of Na2CO3 to NaHCO3 of 3:7 (v/v) to adjust the pH to 9.5. The mixture was stored at room temperature for later use.
Activation reactions of the complement alternative pathway: Human serum was 5-fold diluted with PBS solution to form a 20% serum solution, and the solution was placed on ice for later use. 20 mM test compounds dissolved in 100% DMSO were serially diluted with 100% DMSO to 2000, 500, 125, 31.25, 7.8125, 0.488281, 0.12207, 0.030518, and 0.007629 μM, with the blank well containing 100% DMSO. The compounds and 100% DMSO were then 20-fold diluted in 2× EGTA reaction buffer (4.2 mM HEPES, 0.15 mM CaCl2), 140 mM NaCl, 4.5 mM MgCl2, 0.1% gelatin, 20 mM EGTA). Meanwhile, 100% DMSO was 20-fold diluted in 2× EDTA reaction buffer (4.2 mM HEPES, 0.15 mM CaCl2), 140 mM NaCl, 4.5 mM MgCl2, 0.1% gelatin, 20 mM EDTA) as a negative control well. 40-μL serum-EGTA reaction mixtures were prepared by mixing well 20 μL of 20% human serum, 4 μL of the above test compounds or DMSO diluted in 2× EGTA reaction buffer, and 16 μL of 2× EGTA reaction buffer. Serum-EGTA-DMSO was used as a blank control. The mixtures were incubated at room temperature for 30 min. In the negative control well, a 40-μL serum-EDTA reaction mixture was prepared by mixing well 20 μL of 20% human serum, 4 μL of the above DMSO diluted in 2× EDTA reaction buffer, and 16 μL of 2× EDTA reaction buffer. The mixture was incubated at room temperature for 30 min. The 96-well adsorption black plate coated with zymosan A one day ahead of time was washed 3 times with 300 μL/well TBST (0.05% tween 20) solution, and the serum-EGTA-test compound reaction mixtures, the blank control well, and the serum-EDTA-DMSO reaction mixture (negative control well) were added at 25 L/well. The mixtures were reacted at 37° C. for 40 min. The plate was washed 3 times with 300 μL/well TBST solution, the StartingBlock™ T20 (TBS) blocking buffer was added at 300 μL/well, and the plate was incubated at 37° C. for 15 min.

[2] = system: passive heymann nephritis rats; assay: Therapeutic effects on Heymann nephritis in rats induced by sheep anti-rat Fx1A serum; assay type: in vivo; details: for decrease in rat serum iC3b+C3d compared to the model group: serum day 15; for decrease in the ratio of total protein/creatinine in rat urine compared to the model group: day 14
Description: Experimental animals: laboratory male SD rats, provided by Vital River Laboratory Animal Technology Co., Ltd. (production license number: SCXK (Zhejiang) 2019-0001; animal certificate number: 20210401Abzz0619000322; weighing 180-200 g at purchase).
After the acclimatization, the male SD rats were grouped as follows according to total protein in urine and body weight in the 2 days before the experiment:
On day 0 of the experiment, the model group and administration groups were given a single tail vein injection of Fx1A serum (5 mL/kg), and the normal group was given a tail vein injection of normal goat serum. […] The experiment ended on day 15. Two-hour urine was collected on days 2, 4, 6, 8, 11, and 14 and assayed for creatinine and total protein. Serum was collected on day 15 for complement activation fragment (C3d+iC3b) analysis.
The experimental data are expressed as mean±standard error (SEM). Statistical comparison was performed using Excel software t-test. The data of the model group and the data of the blank control group were analyzed and compared to judge whether a significant mathematical statistical significance exists. *P<0.05 indicates a significant difference between the model group and the blank control group, **P<0.01 indicates a highly significant difference between the model group and the blank control group, and ***P<0.001 indicates a very highly significant difference between the model group and the blank control group. #P<0.05 indicates a significant difference between an administration group and the model group, ##P<0.01 indicates a highly significant difference between an administration group and the model group, and ###P<0.001 indicates a very highly significant difference between an administration group and the model group.

[3] = target: human complement factor B (Homo sapiens (Human), UniProt P00751); assay: biochemical
Description: Assays for the C3a des Arg epitope generated after C3 is cleaved can be used to evaluate the efficiency of C3 being hydrolyzed, i.e., the C3bBb enzyme activity, and thereby to evaluate the effects of the compounds on the C3bBb enzyme.
A 100 mM Na2CO3 solution and a 100 mM NaHCO3 solution were prepared and mixed in a ratio of Na2CO3 to NaHCO3 of 3:7 (v/v) to adjust the pH to 9.5. The mixture was stored at room temperature for later use. […] The compounds and 100% DMSO were then 20-fold diluted in C3 reaction buffer (PBS pH 7.4, 1 mM MgCl2, 0.05% CHAPS).
Cleavage reactions of the C3 protein: In a 96-well low-volume white plate, 10-μL reaction systems were prepared by adding CVF:Bb (to a final concentration of 2 nM) and 1 μL of the above test compounds and DMSO diluted in C3 reaction buffer to C3 reaction buffer (PBS pH 7.4, 1 mM MgCl2, 0.05% CHAPS). The plate was incubated at room temperature for 1 h. […] Human complement factor C3 was added to the reaction systems to a final concentration of 500 nM. After they were well mixed, the mixtures were reacted in a constant-temperature incubator at 37° C. for 2 h. Among the reaction mixtures, the reaction well that contained only 500 nM human complement factor C3 was used as a negative control. To a 96-well adsorption black plate, 97 μL of the carbonic acid buffer (pH 9.5) was added, and the C3 protein cleavage reaction mixtures were added at 3 μL/well. After they were well mixed, the plate was sealed and incubated at 4° C. overnight.
C3a des Arg assays: The plate was washed 3 times with 300 μL/well TBST (0.05% tween 20) solution, the StartingBlock™ T20 (TBS) blocking buffer was added at 300 μL/well, and the plate was incubated at 37° C. for 5 min. […] The plate was washed 3 times with 300 μL/well PBST solution, the goat anti-mouse IgG H&L (HRP) antibody was 1:5000 diluted in PBST solution and added at 100 μL/well, and the plate was incubated at 37° C. for 30 min. […]
The inhibition rate was calculated using the following formula:

[4] = system: patients with PNH and active hemolysis; details: cited from earlier work
IgAN patients = details: 4 IgAN patients, end of phase 2; cited from earlier work

## CCO[C@H]1C[C@H]2CC[C@](c3ccc(C(=O)O)cc3)(C1)N2Cc1c(OC)cc(C)c2[nH]ccc12 (relative stereo) [Example 1, (±)-rel-4-((1S,3S,5R)-3-Ethoxy-8-((5-methoxy-7-methyl-1H-indol-4-yl)methyl)-8-azabicyclo[3.2.1]octan-1-yl)benzoic acid]
[1]
  IC50: 43.2 nM

## CCO[C@H]1C[C@H]2CCC(c3ccc(C(=O)O)cc3)(C1)N2Cc1c(OC)cc(C)c2[nH]ccc12 (stereo in doubt) [Example 1-1, 4-((1S,3S,5R)-3-Ethoxy-8-((5-methoxy-7-methyl-1H-indol-4-yl)methyl)-8-azabicyclo[3.2.1]octan-1-yl)benzoic acid]
[1]
  IC50: 27 nM
[2]; 10 mg/kg orally twice daily
  decrease in rat serum iC3b+C3d compared to the model group: 76.2%
[2]; 30 mg/kg orally twice daily
  decrease in rat serum iC3b+C3d compared to the model group: 105.5%
[2]; 90 mg/kg orally twice daily
  decrease in rat serum iC3b+C3d compared to the model group: 108.7%

## CCO[C@H]1C[C@H]2CCC(c3ccc(C(=O)O)cc3)(C1)N2Cc1c(C)cc(C)c2[nH]ccc12 (stereo in doubt) [Example 3, 4-((1S,3S,5R)-8-((5,7-Dimethyl-1H-indol-4-yl)methyl)-3-ethoxy-8-azabicyclo[3.2.1]octan-1-yl)benzoic acid]
[1]
  IC50: 49.8 nM
[3]
  IC50: 4.9 nM

## CCO[C@H]1C[C@H]2CCC(c3ccc(C(=O)O)cc3)(C1)N2Cc1c(C2CC2)cc(C)c2[nH]ccc12 (stereo in doubt) [Example 4, 4-((1S,3S,5R)-8-((5-Cyclopropyl-7-methyl-1H-indol-4-yl)methyl)-3-ethoxy-8-azabicyclo[3.2.1]octan-1-yl)benzoic acid]
[1]
  IC50: 50.6 nM
[3]
  IC50: 1.6 nM

## CCO[C@H]1C[C@H]2CCC(c3ccc(C(=O)O[C@@H]4O[C@H](C(=O)O)[C@@H](O)[C@H](O)[C@H]4O)cc3)(C1)N2Cc1c(OC)cc(C)c2[nH]ccc12 (stereo in doubt) [Example 5, (2S,3S,4S,5R,6S)-6-((4-((1S,3S,5R)-3-Ethoxy-8-((5-methoxy-7-methyl-1H-indol-4-yl)methyl)-8-azabicyclo[3.2.1]octan-1-yl)benzoyl)oxy)-3,4,5-trihydroxytetrahydro-2H-pyran-2-carboxylic acid]
[1]
  IC50: 74.6 nM
[3]
  IC50: 30 nM

## CCO[C@H]1CCN(Cc2c(OC)cc(C)c3[nH]ccc23)[C@H](c2ccc(C(=O)O)cc2)C1 [LNP023]
[2]; 20 mg/kg orally twice daily
  day from which statistical decreases in urine total protein/creatinine ratio began: 11 days
  decrease in the ratio of total protein/creatinine in rat urine compared to the model group: 56.4%
  decrease in rat serum iC3b+C3d compared to the model group: 62.2%
[2]; 60 mg/kg orally twice daily
  day from which statistical decreases in urine total protein/creatinine ratio began: 11 days
  decrease in the ratio of total protein/creatinine in rat urine compared to the model group: 47.1%
  decrease in rat serum iC3b+C3d compared to the model group: 68.8%
[2]; day 14, across dose groups
  dose dependence of the decrease in urine total protein/creatinine ratio: not significantly dose-dependent
[4]; at 13 weeks, all the patients, LNP023 twice daily with eculizumab
  decrease in LDH: 34-81%
[4]; at 13 weeks
  males with Hb>120 g/L: 71%
[4]; twice daily for at least 13 weeks with eculizumab
  tolerability: well tolerated

## OMS721: humanized monoclonal antibody targeting the MASP-2 protein developed by Omeros Inc.
IgAN patients
  proteinuria index: significantly improved
